According to US9907737B2, “Composition comprising ferulic acid ethyl ester and aryl alkanol” (L'AIR LIQUIDE, SOCIETE ANONYME POUR L'ETUDE ET …, priority 2013, dated 2018):
Marks after values point to notes of the source that are not given here.

Experiments:
S. aureus ATCC: 6538 = test: Bacterial count reduction test (method 1), S. aureus; format: cell-based, Staphylococcus aureus; conditions: o/w cream, initial bacterial count 1 × 10^9
Procedure: (§1) Method 1: Bacterial Count Reduction Test
(§2) The aim of this bacterial count reduction test is to determine suitable preservatives and reaction times for samples injected in the laboratory.
(§3) Staphylococcus aureus, Escherichia coli or Pseudomonas aeruginosa, Candida albicans, Aspergillus brasiliensis
(§4) From a 24-hour CS-angular agar culture (I subculture) of Staphylococcus aureus/Escherichia coli 24-hour CSL-cultures (II subculture) are created. The incubation is carried out at 37° C. The titer of the bacterial suspension is about 10^9 CFU/ml.
(§5) The titres of the respectively produced test organism suspensions are determined by means of a dilution series in physiological NaCl and recorded.
(§6) The samples are displaced with different concentrations of suitable preservatives. For each test bacterium a dilution series is required. The samples are injected individually with the respective test organism suspension and stirred well:
(§7) 25 g samples=0.1 ml bacterial suspension
(§8) 50 g samples=0.2 ml bacterial suspension.
(§9) After the indicated reaction times the samples are firstly stirred homogenously with a sterile glass rod and then spread onto CSA or SA agar. The bacteria samples are spread onto CSA and incubated for 48 hours at 37° C. The mould and yeast samples are spread onto SA agar and incubated for 48 hours at 37° C. (Candida albicans) and at 25° C. (Aspergillus brasiliensis).

C. albicans ATCC: 10231 = test: Bacterial count reduction test (method 1), C. albicans; format: cell-based, Candida albicans
Procedure: as §1, §2, §3
A 4 day old Candida albicans culture on SA-agar (II subculture) is washed with 5 ml physiological NaCl and adjusted according to a barium sulphate standard (cf. DVG Guidelines). The titer of the Candida albicans suspension is 10^8 CFU/ml.
as §5, §6, §7, §8, §9

[1] = test system: A. brasiliensis ATCC: 16404; test: Bacterial count reduction test (method 1), A. brasiliensis; format: cell-based, Aspergillus brasiliensis
Procedure: as §1, §2, §3
A 7 to 14 days old Aspergillus brasiliensis culture on SA agar (25° C.±1° C.) is washed with 5 ml physiological NaCl, filtered by a glass funnel with glass wool and filled with physiological NaCl to 100 ml. The titre of the Aspergillus brasiliensis suspension is about 10^7 CFU/ml.
as §5, §6, §7, §8, §9

[2] = test system: Staphylococcus aureus, Escherichia coli or Pseudomonas aeruginosa, Candida albicans, Aspergillus brasiliensis; test: Bacterial count reduction test (method 1), summary in words over the test organisms; format: cell-based; conditions: Example 3, Table 4; o/w-Lotion; concentration of 2%
Procedure: as §1, §2, §3, §6, §9

E. coli ATCC: 11229 = test: Bacterial count reduction test (method 1), E. coli; format: cell-based, Escherichia coli; conditions: o/w cream, initial bacterial count 1.3 × 10^9
Procedure: as §1, §2, §3, §4, §5, §6, §7, §8, §9

[3] = o/w cream, initial bacterial count 4.1 × 10^8
[4] = o/w-Lotion, initial bacterial count 5.4 × 10^8
[5] = o/w cream, initial bacterial count 1.5 × 10^7
[6] = o/w-Lotion, initial bacterial count 7.7 × 10^7

## COc1cc(/C=C/C(=O)O)ccc1O [0.1% ferulic acid, ferulic acid]
S. aureus ATCC: 6538; 24 h
  Growth of S. aureus ATCC: 6538 after 24 hours: R (Surface covered About 10^6)
S. aureus ATCC: 6538; 72 h
  Growth of S. aureus ATCC: 6538 after 72 hours: ++++ (Massive growth About 10^5)
S. aureus ATCC: 6538; 168 h
  Growth of S. aureus ATCC: 6538 after 168 hours: ++++ (Massive growth About 10^5)
S. aureus ATCC: 6538; 336 h
  Growth of S. aureus ATCC: 6538 after 336 hours: ++++ (Massive growth About 10^5)
C. albicans ATCC: 10231; [3]
  Growth of C. albicans ATCC: 10231 after 24 hours: R (Surface covered About 10^6)
  Growth of C. albicans ATCC: 10231 after 72 hours: R (Surface covered About 10^6)
  Growth of C. albicans ATCC: 10231 after 168 hours: ++++ (Massive growth About 10^5)
  Growth of C. albicans ATCC: 10231 after 336 hours: ++++ (Massive growth About 10^5)
C. albicans ATCC: 10231; [4]
  Growth of C. albicans ATCC: 10231 after 24 hours: R (Surface covered About 10^6)
  Growth of C. albicans ATCC: 10231 after 72 hours: R (Surface covered About 10^6)
  Growth of C. albicans ATCC: 10231 after 168 hours: ++++ (Massive growth About 10^5)
  Growth of C. albicans ATCC: 10231 after 336 hours: ++++ (Massive growth About 10^5)
[1]; [5]
  Growth of A. brasiliensis ATCC: 16404 after 24 hours: ++++ (Massive growth About 10^5)
  Growth of A. brasiliensis ATCC: 16404 after 72 hours: ++++ (Massive growth About 10^5)
  Growth of A. brasiliensis ATCC: 16404 after 168 hours: ++++ (Massive growth About 10^5)
  Growth of A. brasiliensis ATCC: 16404 after 336 hours: ++++ (Massive growth About 10^5)
[1]; [6]
  Growth of A. brasiliensis ATCC: 16404 after 24 hours: ++++ (Massive growth About 10^5)
  Growth of A. brasiliensis ATCC: 16404 after 72 hours: ++++ (Massive growth About 10^5)
  Growth of A. brasiliensis ATCC: 16404 after 168 hours: ++++ (Massive growth About 10^5)
  Growth of A. brasiliensis ATCC: 16404 after 336 hours: ++++ (Massive growth About 10^5)
[2]
  Effectiveness in bacterial count reduction test, in words: inherent effectiveness
E. coli ATCC: 11229; 24 h
  Growth of E. coli ATCC: 11229 after 24 hours: ++++ (Massive growth About 10^5)
E. coli ATCC: 11229; 72 h
  Growth of E. coli ATCC: 11229 after 72 hours: R (Surface covered About 10^6)
E. coli ATCC: 11229; 168 h
  Growth of E. coli ATCC: 11229 after 168 hours: R (Surface covered About 10^6)
E. coli ATCC: 11229; 336 h
  Growth of E. coli ATCC: 11229 after 336 hours: R (Surface covered About 10^6)
